Data on five compounds can be found in patent US20120028880A1, “VEGFR-1/NRP-1 TARGETING PEPTIDES” (priority 2007, published 2012).

Series [1] addresses T1, NRP-1 (Homo sapiens, UniProt O14786).
T1 construct: purchased R&D Systems (Minneapolis, Minn.)
In words: Phage binding competition assay, immobilized NRP-1. The protocol:
(§1) Phage assay. Phage was prepared by infection of log-phase culture of E. coli K91kan, and overnight growth in Luria-Bertani (LB) media supplemented with kanamycin (100 μg/ml) and tetracyclin (20 μg/ml) at 37° C. and 250 rpm. Phage was precipiated from the media supernatant by the PEG/NaCl method, and phage titer determined by serial dilution and colony counting (Giordano, 2001). For the phage binding and competition assays, VEGFR-1, NRP-1 or BSA (10 μg/ml in PBS) was immobilized on microtiter wells overnight at 4° C. Wells were washed twice, blocked with PBS 3% BSA for 2 h at room temperature and incubated with 10^9 TU of CPQPRPLC or negative control insertless (Fd-tet) phage in PBS 3% BSA. After 1 h at room temperature, wells were washed 10 times with PBS and phage bound to the immobilized receptors recovered by bacterial infection (Giordano, 2001).

The target of series [2] is T2, VEGFR-1 (Homo sapiens, UniProt P17948).
T2 construct: purchased R&D Systems (Minneapolis, Minn.)
T2 sequence (P17948 27-1338, species assumed): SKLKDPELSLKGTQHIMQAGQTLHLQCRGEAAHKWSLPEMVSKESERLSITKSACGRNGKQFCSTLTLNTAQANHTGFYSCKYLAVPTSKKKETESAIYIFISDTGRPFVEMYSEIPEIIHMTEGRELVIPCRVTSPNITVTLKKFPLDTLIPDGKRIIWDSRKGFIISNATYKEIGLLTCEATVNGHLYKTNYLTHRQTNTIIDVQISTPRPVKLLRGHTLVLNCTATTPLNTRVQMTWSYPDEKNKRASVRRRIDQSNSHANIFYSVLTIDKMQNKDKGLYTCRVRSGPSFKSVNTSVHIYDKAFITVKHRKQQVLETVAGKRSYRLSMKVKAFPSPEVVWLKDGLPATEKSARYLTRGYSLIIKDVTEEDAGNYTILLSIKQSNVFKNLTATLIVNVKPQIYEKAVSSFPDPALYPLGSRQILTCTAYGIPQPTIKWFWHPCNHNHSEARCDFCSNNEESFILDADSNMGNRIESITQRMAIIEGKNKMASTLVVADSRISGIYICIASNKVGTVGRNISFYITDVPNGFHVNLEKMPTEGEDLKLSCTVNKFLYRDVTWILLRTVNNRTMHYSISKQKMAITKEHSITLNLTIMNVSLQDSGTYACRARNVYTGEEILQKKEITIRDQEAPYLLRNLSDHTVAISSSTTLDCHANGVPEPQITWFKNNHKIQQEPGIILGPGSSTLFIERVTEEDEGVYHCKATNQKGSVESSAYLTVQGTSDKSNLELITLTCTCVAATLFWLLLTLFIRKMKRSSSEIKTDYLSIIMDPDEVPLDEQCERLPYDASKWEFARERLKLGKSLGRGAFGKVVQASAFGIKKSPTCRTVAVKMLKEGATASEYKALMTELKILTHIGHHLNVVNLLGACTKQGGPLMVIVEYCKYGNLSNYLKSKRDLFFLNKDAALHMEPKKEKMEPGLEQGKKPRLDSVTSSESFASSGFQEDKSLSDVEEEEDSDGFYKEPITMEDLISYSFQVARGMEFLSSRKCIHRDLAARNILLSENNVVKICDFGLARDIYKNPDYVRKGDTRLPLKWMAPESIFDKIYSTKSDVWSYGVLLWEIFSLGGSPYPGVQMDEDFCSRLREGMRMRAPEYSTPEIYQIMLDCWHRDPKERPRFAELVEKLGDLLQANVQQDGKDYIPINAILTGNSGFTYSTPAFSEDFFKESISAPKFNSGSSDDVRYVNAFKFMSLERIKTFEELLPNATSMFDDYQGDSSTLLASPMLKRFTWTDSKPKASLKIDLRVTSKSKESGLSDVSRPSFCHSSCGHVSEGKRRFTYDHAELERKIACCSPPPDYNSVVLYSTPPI
In words: Phage binding competition assay, immobilized VEGFR-1. As to the method: as §1

A further series has as its system pancreatin. Put plainly: Protease resistance assay. As to conditions: increasing concentrations of pancreatin, highest ratio 400 pg/nmol; 2 h at 37° C.; MALDI-TOF. Format: in vitro ADME. As to the method:
Protease resistance assay. The D(LPR) and RPL peptides were diluted to 500 μg/ml in PBS and incubated with increasing concentrations of pancreatin (Sigma-Aldrich, St. Louis, Mo.) for 2 h at 37° C. Samples were then analyzed by mass spectroscopy (MALDI-TOF).

The nature of series [3]: Weight loss in diet-induced obese mice. Format: in vivo, mouse. The text has this:
The present inventors thus carried out studies to assess the ability of the LPR VEGFR-1 targeting peptides of the present invention to target fat tissue and thereby reduce weight in diet-induced obese mice. To this end, diet-induced obese mice were divided in groups and treated with the VEGFR-1/NRP-1 targeting peptide. C57BL/6 ]-60% DIO mice (36-weeks old) were purchased from The Jackson Laboratory. These animals were fed on a high calorie diet (J-60%) to produce a diet-induced obesity (DIO) phenotype. Animals were divided in groups and treated daily with: [Group 1]D(CLPRC) (SEQ ID NO:7) (N=5); [Group 2] CKGGRAKDC-GG-D(KLAKLAK)2 (SEQ ID NO:9) (N=3); [Group 3]D(CLPRC) combined with CKGGRAKDC-GG-D(KLAKLAK)2 (SEQ ID NO:10) (N=4); [Group 4] vehicle only (N=4). All animals were hydrated by intraperitoneally administration of 1 ml of saline solution (0.9% sodium chloride solution, USP quality) 30 minutes prior to treatment. Mice were treated daily with D(CLPRC) dissolved in phosphate buffered saline vehicle (PBS) (100 μl total injection) at a 50 mg/Kg/body weight dose (Groups 1 and 3); CKGGRAKDC-GG-D(KLAKLAK)2 (SEQ ID NO:9) in PBS was administered by subcutaneously (100 total volume) at 3 mg/Kg (Group 2) or at 1 mg/Kg when in combination with D(CLPRC) (Group 3) 5 days a week (Monday thru Friday). Mice were weighted once a week.

The subject of another series is white fat. Particulars: previous studies of the inventors; cited from earlier work.
Series [4] addresses T1, NRP-1. As to conditions: Giordano et al., 2001; read-out: IC50 previously described for NRP-1; cited from earlier work.
Series [5] addresses T2, VEGFR-1. Particulars: Giordano et al., 2001; read-out: IC50 previously described for VEGFR-1; cited from earlier work.
Another series has as its system EF43.fgf4 derived tumors. Put plainly: Tumor growth, EF43.fgf4 breast cancer model. Format: in vivo, mouse. The protocol:
Tumor growth. The EF43.fgf4 cells were cultured in Dulbelco's modified Eegles medium supplemented with fetal bovine serum, glutamine and antibiotics. Cells were harvested before reaching confluence and injected subcutaneously in the mammary fatpad of Balb/c mice. Mier 10 days, tumor reached ˜50-80 mm^3 and were then separated into four groups with seven animals (N=7). Animals in each group were treated with either vehicle only (phosphate saline buffered solution) or with control peptide D(CAPAC) (SEQ ID NO:6) or D(LPR) (at 50 mg/Kg) or with the cyclic version D(CLPRC) (SEQ ID NO:7) (at 25 mg/Kg). Tumor volume was calculated by measuring the length of the long (L) and the short (S) sides of each tumor (V=S^2×L×[…]).
Statistical analysis. For the in vivo experiments, statistical significance of the difference was computed by Kruskal-Wallis test (non parametric one factor ANOVA method) with p<0.05 for each treatment day. […] Multiple comparisons were adjusted by Bejamini & Hochberg method. All the statistical analysis was computed using The R (Version 2.4.1) Project for Statistical Computing.

Setting [6] is: fat-zapper alone, 3 mg/Kg subcutaneously, obese mice.
[7] abbreviates: obese C57BL/6 mice, 50 mg/Kg daily intraperitoneally, over the treatment period.

Read-outs that look alike come from different tables or passages of the source. Square brackets hold non-standard residues; d marks the D form. Ends that are not written are not given here. Peptide text beside a SMILES is read from it.

For orientation: IC50 means the concentration at which inhibition is half-maximal.

T1 sequence (O14786 22-923): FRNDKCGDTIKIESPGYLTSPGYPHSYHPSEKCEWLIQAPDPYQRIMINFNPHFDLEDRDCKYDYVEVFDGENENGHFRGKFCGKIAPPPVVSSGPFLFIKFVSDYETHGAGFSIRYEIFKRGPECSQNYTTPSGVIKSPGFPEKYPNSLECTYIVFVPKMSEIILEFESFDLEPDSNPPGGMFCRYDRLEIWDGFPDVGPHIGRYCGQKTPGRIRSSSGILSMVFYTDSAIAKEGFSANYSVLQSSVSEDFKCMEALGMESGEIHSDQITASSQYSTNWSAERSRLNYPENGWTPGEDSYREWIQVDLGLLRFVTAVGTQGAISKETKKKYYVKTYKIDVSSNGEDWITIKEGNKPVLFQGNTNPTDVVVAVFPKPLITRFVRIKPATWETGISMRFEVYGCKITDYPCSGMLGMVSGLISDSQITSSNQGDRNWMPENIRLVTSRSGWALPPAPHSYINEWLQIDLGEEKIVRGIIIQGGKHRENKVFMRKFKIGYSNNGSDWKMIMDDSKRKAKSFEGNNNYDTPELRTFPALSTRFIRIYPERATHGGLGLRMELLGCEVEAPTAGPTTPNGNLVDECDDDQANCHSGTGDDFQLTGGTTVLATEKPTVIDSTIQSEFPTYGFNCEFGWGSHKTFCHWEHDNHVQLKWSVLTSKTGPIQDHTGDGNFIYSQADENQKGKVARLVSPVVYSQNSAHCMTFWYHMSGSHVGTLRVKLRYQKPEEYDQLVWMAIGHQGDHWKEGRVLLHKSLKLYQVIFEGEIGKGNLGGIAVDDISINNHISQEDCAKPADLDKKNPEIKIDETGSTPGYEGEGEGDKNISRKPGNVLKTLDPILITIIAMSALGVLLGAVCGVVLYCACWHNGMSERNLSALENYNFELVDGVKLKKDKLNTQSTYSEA

Regarding `CC(C)C[C@@H](N)C(=O)N1CCC[C@@H]1C(=O)N[C@H](CCCNC(=N)N)C(=O)O` [D(LPR), D-Leu-D-Pro-D-Arg] (H-[dL]-[dP]-[dR]-OH), the IC50 on NRP-1 [1] and on VEGFR-1 [2] was 0.001 to 0.01 nM in each case. The “proteolytic degradation by pancreatin (breakdown products by mass spectroscopy)” value in the series on pancreatin is given as “No breakdown products were observed”.

With `CC(C)C[C@H](NC(=O)[C@@H]1CCCN1C(=O)[C@@H](N)CCCNC(=N)N)C(=O)O` [RPL, L-Arg-L-Pro-L-Leu, reference compound] (H-Arg-Pro-Leu-OH), the “proteolytic degradation by pancreatin (breakdown products by mass spectroscopy)” value with pancreatin was “marked degradation”.

“CKGGRAKDC-GG-D(KLAKLAK)2 (CKGGRAKDCGG[dK][dL][dA][dK][dL][dA][dK][dK][dL][dA][dK][dL][dA][dK]; cysteine pairing not given here) [fat-zapper, homing peptide … conjugated to the proapoptotic peptide D(KLAKLAK)2, reference compound]”: in series [3] (setting [6]), the weight loss entry is recorded as “about 10 grams” and the “weight loss, % body weight” value was found to be 20 % body weight. In the series with white fat, the “therapeutic dose that induces fat ablation” value is not below 3 mg/Kg/body weight.

On to CPQPRPLC, for which the IC50 on NRP-1 [4] is 50 to 100 nM; at VEGFR-1 [5], approximately 1 nM.

As for “D(Cys Leu Pro Arg Cys) ([dC][dL][dP][dR][dC]; also: cyclic, ring type not given here) [D(CLPRC)]”, in series [3] (setting [7]), the weight loss entry is listed as “about 3 grams” and the “weight loss, % of body weight” value was “approx. 6 % of body weight”. Besides, the “effect on tumor volume” value with EF43.fgf4 derived tumors (25 mg/Kg daily, Balb/c mice) is listed as “significant reduction in tumor volume”. For the same compound, in the series on EF43.fgf4 derived tumors (legend: 50 mg/Kg daily, after five days of treatment, compared to control animals), the “effect on tumor volume (FIG. 3 legend)” value is “reduced tumor volume”.
